Reference: patent publication US20260174786A1, “A NITROGEN-CONTAINING SPIROCYCLIC COMPOUND, PHARMACEUTICAL COMPOSITION AND USE THEREOF” (Prime Gene Therapeutics Co., Ltd., priority 2022, published 2026)

How the values were obtained:
[1] = Permeability experiment of Caco-2 cells; format: in vitro ADME; settings: human, pH 7.4, Caco-2, 5 μM
Method: (§1) 1. Transwell plate preheating: before laying cells, adding 100 μL of culture medium to the upper layer of Transwell plate and 600 μL of culture medium to the lower layer of Transwell plate, Pre-incubating at 37° C. under 5% CO2 for 1 hour. 2. Treating Caco-2 cells by adding 100 μL of cell suspension (4×10^5 cells/mL) to each well, and cultivating in a 37° C., 5% CO2 incubator for 14-21 days. 3. Changing the cell culture medium every other day within 7 days, and changing it daily after 7 days. 4. Using EVOM3 to measure single-layer epithelial to epithelial resistance (TEER).
(§2) 1. Preheating HBSS (10 mM HEPES, pH 7.4) buffer, cleaning the upper and lower layers of Transwell plates twice each, and incubating at 37° C. for 30 minutes. 2. Working solution: Diluting the test compound HBSS buffer with 1 mM DMSO to 5 μM. 3. A-B direction: Adding 200 μL of 5 μM working solution to the upper layer and 600 μL of HBSS buffer solution to the lower layer; 4. B-A direction: Adding 600 μL of 5 μM working solution to the lower layer and 200 μL of HBSS buffer to the upper layer, and incubating for 2 hours. 5. C0 sample: Taking 100 μL of working solution to a sample plate containing 400 μL of methanol (internal standard). 6. After incubation for 2 hours, taking 100 μL from the upper and lower layers of the chamber to the sample plates containing 400 μL of methanol (internal standard). 7. Mixing and centrifuging, mixing the supernatant with a certain amount of water, and using the sample for LC-MS/MS data analysis. 8. After completing step 6, adding 200 μL of 100 μM fluorescent yellow solution to the upper chamber and 600 μL of HBSS buffer salt solution to the lower chamber. Incubating at 37° C. and 5% CO2 for 30 minutes, and taking out 50 μL of each into a black plate to read the fluorescence value. 9. Data analysis.

Caco-2 cells = assay: Permeability experiment of Caco-2 cells; format: in vitro ADME; settings: Caco-2, 5 μM
Method: as §1, §2

Question: Which results are given for `O=C(c1ccc(F)cn1)N1CC[C@@]2(C[C@@H](O)c3cc(-c4ccccc4C4CC4)ccc32)C1` [Example 21, ((1S,3R)-5-(2-cyclopropylphenyl)-3-hydroxy-2,3-dihydrospiro[indene-1,3′-pyrrolidine]-1′-yl)(5-fluoropyridin-2-yl)ketone]?
Answer: Papp A→B at 2 h, 5 μM ([1]; 2 hours): 20.9 ×10⁻⁶ cm/s; Papp B→A at 2 h, 5 μM ([1]; 2 hours): 9.58 ×10⁻⁶ cm/s; efflux ratio at 2 h, 5 μM ([1]; read-out: External ratio): 0.46; Recover A→B % (Caco-2 cells): 49.40%; Recover B→A % (Caco-2 cells): 68.20%
